The text below walks through data of patent US10385012B2, “Thioamides and amides for controlling animal pests” (BASF SE, priority 2013, dated 2019).

What all share (type): in vivo
In data set [1] the test system is Green soldier stink bug (Nezara viridula). Nature of the data set: Green soldier stink bug test on sprayed soybean pods. The conditions noted are these: 120 h, 3rd instar N. viridula on soybean pods, after 5 days, in comparison with untreated controls. As to the method:
The active compound is dissolved at the desired concentration in a mixture of 1:1 (vol:vol) distilled water:aceteone. Surfactant (Kinetic HV) is added at a rate of 0.01% (vol/vol). The test solution is prepared at the day of use. Soybean pods were placed in microwavable plastic cups lined with moist filter paper and inoculated with ten 3rd instar N. viridula. Using a hand atomizer, an approximately 2 ml solution is sprayed into each cup. Treated cups were kept at about 28-29° C. and relative humidity of about 50-60%. Percent mortality was recorded after 5 days.

For data set [2], the system named is boll weevil (Anthonomus grandis). The data set is described as follows: Boll weevil control, 24-well microtiter plates with insect diet and eggs. The conditions noted are these: 120 h, egg and larval mortality after 5 days, in comparison with untreated controls. As to the method: For evaluating control of boll weevil (Anthonomus grandis) the test unit consisted of 24-well-microtiter plates containing an insect diet and 20-30 A. grandis eggs. The compounds were formulated using a solution containing 75% v/v water and 25% v/v DMSO. Different concentrations of formulated compounds were sprayed onto the insect diet at 20 μl, using a custom built micro atomizer, at two replications. After application, microtiter plates were incubated at about 23±1° C. and about 50±5% relative humidity for 5 days. Egg and larval mortality was then visually assessed.

The subject of data set [3] is Silverleaf whitefly (Bemisia argentifolii). The data set is described as follows: Silverleaf whitefly test on sprayed cotton plants. The conditions noted are these: 72 h, whitefly adults on cotton, 3 days after treatment, in comparison with untreated controls. As to the method: The active compounds were formulated in cyclohexanone as a 10,000 ppm solution supplied in 1.3 ml ABgene® tubes. These tubes were inserted into an automated electrostatic sprayer equipped with an atomizing nozzle and they served as stock solutions for which lower dilutions were made in 50% acetone:50% water (v/v). A nonionic surfactant (Kinetic®) was included in the solution at a volume of 0.01% (v/v). Cotton plants at the cotyledon stage (one plant per pot) were sprayed by an automated electrostatic plant sprayer equipped with an atomizing spray nozzle. The plants were dried in the sprayer fume hood and then removed from the sprayer. Each pot was placed into a plastic cup and 10 to 12 whitefly adults (approximately 3-5 days old) were introduced. The insects were collected using an aspirator and 0.6 cm, nontoxic Tygon® tubing (R-3603) connected to a barrier pipette tip. The tip, containing the collected insects, was then gently inserted into the soil containing the treated plant, allowing insects to crawl out of the tip to reach the foliage for feeding. Cups were covered with a reusable screened lid (150-micron mesh polyester screen PeCap from Tetko, Inc.). […] Mortality was assessed 3 days after treatment, compared to untreated control plants.

Data set [4] relates to yellow fever mosquito (Aedes aegypti). The data set is described as follows: whole plant or invertebrate. The conditions noted are these: 48 h, larval mortality after 2 days, in comparison with untreated controls. As to the method: For evaluating control of yellow fever mosquito (Aedes aegypti) the test unit consisted of 96-well-microtiter plates containing 200 μl of tap water per well and 5-15 freshly hatched A. aegypti larvae. The compounds or mixtures were formulated using a solution containing 75% water and 25% DMSO. Different concentrations of formulated compounds or mixtures were sprayed onto the insect diet at 2.5 μl, using a custom built micro atomizer, at two replications. After application, microtiter plates were incubated at 28±1° C., 80±5% RH for 2 days. Larval mortality was then visually assessed.

For data set [5], the system named is Mediterranean fruitfly (Ceratitis capitata). Nature of the data set: Mediterranean fruitfly control, microtiter plates with insect diet and eggs. The conditions noted are these: 120 h, egg and larval mortality after 5 days, in comparison with untreated controls. As to the method:
For evaluating control of Mediterranean fruitfly (Ceratitis capitata) the test unit consisted of microtiter plates containing an insect diet and 50-80 C. capitata eggs. The compounds were formulated using a solution containing 75% v/v water and 25% v/v DMSO. Different concentrations of formulated compounds were sprayed onto the insect diet at 5 μl, using a custom built micro atomizer, at two replications. After application, microtiter plates were incubated at about 28±1° C. and about 80±5% relative humidity for 5 days. Egg and larval mortality was then visually assessed.

In data set [6] the test system is Southern armyworm (Spodoptera eridania). The data set is described as follows: Southern armyworm test on sprayed lima bean plants. The conditions noted are these: 500 ppm; armyworm larvae on lima bean, 4 days after treatment; in comparison with untreated controls. As to the method: The active compounds were formulated in cyclohexanone as a 10,000 ppm solution supplied in 1.3 ml ABgene® tubes. These tubes were inserted into an automated electrostatic sprayer equipped with an atomizing nozzle and they served as stock solutions for which lower dilutions were made in 50% acetone:50% water (v/v). A nonionic surfactant (Kinetic®) was included in the solution at a volume of 0.01% (v/v). Lima bean plants (variety Sieva) were grown 2 plants to a pot and selected for treatment at the 1st true leaf stage. Test solutions were sprayed onto the foliage by an automated electro-static plant sprayer equipped with an atomizing spray nozzle. The plants were dried in the sprayer fume hood and then removed from the sprayer. Each pot was placed into perforated plastic bags with a zip closure. Ten to 11 armyworm larvae were placed into the bag and the bags zipped closed. Test plants were maintained in a growth room at 25° C. and 20-40% relative humidity for 4 days, avoiding direct exposure to fluorescent light (24 hour photoperiod) to prevent trapping of heat inside the bags. Mortality and reduced feeding were assessed 4 days after treatment, compared to untreated control plants.

As for `C#Cc1ccc(CC(C#N)(C(N)=S)c2ccccc2)cc1` (centres unmarked) [II-1, 2-cyano-3-(4-ethynylphenyl)-2-phenylpropanethioamide], the mortality at 500 ppm in data set [1] and in data set [3] was at least 75% throughout. In data set [2], this compound returned a mortality at 2500 ppm of at least 75%.

In the case of `C#Cc1ccc(CC(C#N)(C(=S)NC)c2ccc(F)cc2)cc1` (centres unmarked) [III-1, 2-cyano-3-(4-ethynylphenyl)-2-(4-fluorophenyl)-N-methyl-propanethioamide], the mortality at 2500 ppm in data set [4] and in data set [2] was at least 75% each time.

`C#Cc1ccc(CC(C#N)(C(=O)NC)c2ccc(F)cc2)cc1` (centres unmarked) [III-4, 2-cyano-3-(4-ethynylphenyl)-2-(4-fluorophenyl)-N-methyl-propanamide]: the mortality at 2500 ppm in data set [5] and in data set [2] was at least 75% in each case.

For the compound `N#CC(Cc1ccc(C(F)(F)F)cc1)(C(N)=O)c1ccc(F)cc1` (centres unmarked) [II-2], in data set [6], the mortality result is given as “at least 75%”.

Broadly, the mortality is the percentage killed.
